Results from patent US20080194637A1, “Small organic molecule regulators of cell proliferation” (Curis, Inc., priority 2006, published 2008).
pEC50: −log10 of the molar value. Counter-ions that a name gives are not always drawn. Like-named read-outs stand apart in the source and are kept apart here.

What was measured:
[1] = system: C57BL/6 male mice; experiment: C57BL/6 hair growth after single topical dose; assay type: in vivo, mouse; conditions: shaved lower back, dosed topically once, visually graded for melanogenesis and hair regrowth
Protocol: A mouse model of male pattern baldness is used to investigate the effectiveness of the present compounds for growing hair. Agonists for the sonic hedgehog pathway that act by binding and activating Smoothened were tested in a formulation of 50:30:20 PG:EtOH:water or 5:95 DMSO:acetone vehicle. C57BL/6 male mice (48-52 days old on arrival) from Charles River Labs were used on the study. The mice were housed and cared for according to established procedures. Food and water were ad libitum. On Day 0, the mice were shaved on their lower back, an area of ˜1.5 inches×˜2 inches with Wahl clippers using a surgical blade. On day −3, the mice were anesthetized with isoflurane, their back was rinsed with a pad of 70% ethanol, a placebo pellet or a DHT pellet (2.5 mg 21 day pellet) were implanted subcutaneously between the shoulder blades with a 10 gauge trochar. DHT pellet transplantation results in maintenance of existing hair follicles in the resting (telogen) phase. The hole was stapled with a sterile autoclip and the mice were returned to their cage after awaking. The mice were dosed topically once and visually graded daily, except weekends, for melanogenesis and hair regrowth of fur in the dosed area (Table 4).

[2] = system: sonic hedgehog pathway, TM3 mouse Leydig cells; experiment: Hedgehog pathway Gli-luciferase reporter assay in TM3 cells; assay type: cell-based
Source text: (§1) Mouse (TM3: mouse Leydig cells; S12: mouse embryonic mesenchymal cells) and human (Daoy: human medulloblastoma cell; HepM: human embryonic palatal mesenchymal cell) cell lines are used to screen small molecules for their ability to modulate the activity of the sonic hedgehog pathway (Table 1, Table 2, and Table 3). Stable hedgehog pathway reporter cell lines are established by specific antibiotic selection following transfection of a reporter plasmid containing a luciferase gene located directly downstream from the gli promoter. Consequently, any observable changes in cellular luciferase activity may be attributed to changes in sonic hedgehog pathway activity in mouse and human cells, respectively, since gli is the major by-product of this pathway. To calculate activity, we generate an eleven point dose curve for each compound using 1:3 dilutions in 96 well assay plates. Each plate tested also contains low and high control to establish maximal pathway activation so to establish/compare a percentage activation of each tested compound (AMAX) on respective plates. Also we calculate EC50 values, or a concentration where the pathway will be exactly 50% activated, for each tested compound to determine potency. In these cell lines, compounds that register >20% AMAX values are considered active.
(§2) Stable hedgehog pathway reporter cell lines are established following specific antibiotic selection following transfection of a reporter plasmid In short, typically cells are plated in MicroTiter-plates at 10,000-20,000 cells per well, in growth media (containing 10%-20% FBS). After 48-72 hrs (HGL and DGL respectively) the media in the assay plates is switched to low-serum containing media (0.5% FBS). At that time compounds are added (at 1-5 μM) to the assay plates, in the presence or absence of hedgehog protein (octyl-modified version; 1-5 ng/ml). After another 24 hrs of incubation, the media from the assay plates is discarded and replaced with luciferase assay-mix. Subsequently, plates are incubated at RT for ˜15-30 mins and then read in a luminometer. [note: addition of the Hedgehog protein, although not critical, will sensitize the assay allowing the identification of weak actives].

[3] = system: sonic hedgehog pathway, HepM human embryonic palatal mesenchymal cells; experiment: Human hedgehog reporter assay HEPM-GliLuc (HGL); assay type: cell-based; conditions: gli-luciferase reporter
Source text: as §1, §2

[4] = system: sonic hedgehog pathway, Daoy human medulloblastoma cells; experiment: Human hedgehog reporter assay Daoy-GliLuc (DGL); assay type: cell-based; conditions: gli-luciferase reporter, read-out: Daoy Avg. EC50
Source text: as §1, §2

[5] = HepM human embryonic palatal mesenchymal cells, Table 1
[6] = Daoy human medulloblastoma cells, Table 1

Compound | pEC50 ([2]; Table 1) | pEC50 [3, 5] | pEC50 [4, 6] | other results
CCOc1ccc(-c2ccc(C)nc2)cc1CN(C(=O)c1sc2ccccc2c1Cl)[C@H]1CC[C@H](NC)CC1 |  |  |  | C57BL/6 Hair Growth [1]: yes
CNC(=O)c1cc(-c2ccc(OC)c(CN(C(=O)c3sc4c(F)ccc(F)c4c3Cl)[C@H]3CC[C@H](NC)CC3)c2)ccn1 [356 (R21), 4-(3-{([(3-Chloro-4,7-difluoro-benzo[b]thiophene-2-carbonyl)-(4-methylamino-cyclohexyl)-amino]-methyl}-4-methoxy-phenyl)-pyridine-2-carboxylic acid methylamidedihydrochloride] | > 7.30 | > 7.30 | > 7.30 | 
CN[C@H]1CC[C@@H](N(Cc2cc(-c3cccc(C#N)c3)ccc2OC)C(=O)c2sc3ccccc3c2Cl)CC1 [Compound 304, 3-Chloro-benzo[b]thiophene-2-carboxylic acid (3′-cyano-4-methoxy-biphenyl-3-ylmethyl)-(4-methylamino-cyclohexyl)-amide hydrochloride] | > 7.30 | > 7.30 | > 7.30 | 
CN[C@H]1CC[C@@H](N(Cc2cc(-c3ccc(OC(F)(F)F)cc3)ccc2OC)C(=O)c2sc3ccccc3c2Cl)CC1 [Compound 307, 3-Chloro-benzo[b]thiophene-2-carboxylic acid (4-methoxy-4′-trifluoromethoxy-biphenyl-3-ylmethyl)-(4-methylamino-cyclohexyl)-amide hydrochloride] | > 7.30 |  | > 7.30 | 
CCOc1ccc(-c2ccc(C(F)(F)F)cc2)cc1CN(C(=O)c1sc2ccccc2c1Cl)[C@H]1CC[C@@H](NC)CC1 [Compound 309, 3-Chloro-benzo[b]thiophene-2-carboxylic acid (4-ethoxy-4′-trifluoromethyl-biphenyl-3-ylmethyl)-(4-methylamino-cyclohexyl)-amide hydrochloride] | 6.60 to 7.30 |  | > 7.30 | 
CCOc1ccc(-c2ccc(OC)cc2)cc1CN(C(=O)c1sc2ccccc2c1Cl)[C@H]1CC[C@@H](NC)CC1 [Compound 312, 3-Chloro-benzo[b]thiophene-2-carboxylic acid (4-ethoxy-4′-methoxy-biphenyl-3-ylmethyl)-(4-methylamino-cyclohexyl)-amide hydrochloride] |  |  | 6.60 to 7.30 | 
CCOc1ccc(-c2ccccc2)cc1CN(C(=O)c1sc2ccccc2c1Cl)[C@H]1CC[C@@H](NC)CC1 [Compound 313, 3-Chloro-benzo[b]thiophene-2-carboxylic acid (4-ethoxy-biphenyl-3-ylmethyl)-(4-methylamino-cyclohexyl)-amide hydrochloride] | 6.60 to 7.30 |  | > 7.30 | 
CN[C@H]1CC[C@@H](N(Cc2cc(-c3ccc(C)nc3)ccc2OC)C(=O)c2sc3ccccc3c2Cl)CC1 [Compound 320, 3-Chloro-benzo[b]thiophene-2-carboxylic acid [2-methoxy-5-(6-methyl-pyridin-3-yl)-benzyl]-(4-methylamino-cyclohexyl)-amide dihydrochloride] | > 7.30 | > 7.30 |  | 
CN[C@H]1CC[C@@H](N(Cc2cc(-c3cnc(N(C)C)nc3)ccc2OC)C(=O)c2sc3ccccc3c2Cl)CC1 [Compound 321, 3-Chloro-benzo[b]thiophene-2-carboxylic acid [5-(2-dimethylamino-pyrimidin-5-yl)-2-methoxy-benzyl]-(4-methylamino-cyclohexyl)-amide dihydrochloride] | 5.60 to 6.00 |  | 6.60 to 7.30 | 
CCOc1ccc(-c2cncnc2)cc1CN(C(=O)c1sc2ccccc2c1Cl)[C@H]1CC[C@@H](NC)CC1 [Compound 326, 3-Chloro-benzo[b]thiophene-2-carboxylic acid (2-ethoxy-5-pyrimidin-5-yl-benzyl)-(4-methylamino-cyclohexyl)-amide dihydrochloride] | 6.60 to 7.30 | 6.60 to 7.30 | > 7.30 | 
CN[C@H]1CC[C@@H](N(Cc2cc(-c3cccc(C#N)c3)ccc2OC)C(=O)c2sc3c(F)ccc(F)c3c2Cl)CC1 [Compound 337, 3-Chloro-4,7-difluoro-benzo[b]thiophene-2-carboxylic acid (3′-cyano-4-methoxy-biphenyl-3-ylmethyl)-(4-methylamino-cyclohexyl)-amide hydrochloride] | > 7.30 | > 7.30 |  | 
CN[C@H]1CC[C@@H](N(Cc2cc(-c3ccc(CCl)cc3)ccc2OC)C(=O)c2sc3ccccc3c2Cl)CC1 [Compound 340, 3-Chloro-benzo[b]thiophene-2-carboxylic acid (4′-chloromethyl-4-methoxy-biphenyl-3-ylmethyl)-(4-methylamino-cyclohexyl)-amide hydrochloride] | > 7.30 | > 7.30 | > 7.30 | 
CN[C@H]1CC[C@@H](N(Cc2cc(-c3ccc(C#N)cc3)ccc2OC)C(=O)c2sc3c(F)ccc(F)c3c2Cl)CC1 [Compound 351, 3-Chloro-4,7-difluoro-benzo[b]thiophene-2-carboxylic acid (4′-cyano-4-methoxy-biphenyl-3-ylmethyl)-(4-methylamino-cyclohexyl)-amide hydrochloride] | > 7.30 | > 7.30 |  | 
CN[C@H]1CC[C@@H](N(Cc2cc(-c3cccc(C(C)=O)c3)ccc2OC)C(=O)c2sc3c(F)ccc(F)c3c2Cl)CC1 [Compound 364, 3-Chloro-4,7-difluoro-benzo[b]thiophene-2-carboxylic acid (3′-acetyl-4-methoxy-biphenyl-3-ylmethyl)-(4-methylamino-cyclohexyl)-amide hydrochloride] | > 7.30 | > 7.30 |  | 
CN[C@H]1CC[C@@H](N(Cc2cc(-c3cccc(C#N)c3)ccc2OC)C(=O)c2sc3cccc(F)c3c2Cl)CC1 [Compound 365, 3-Chloro-4-fluoro-benzo[b]thiophene-2-carboxylic acid (3′-cyano-4-methoxy-biphenyl-3-ylmethyl)-(4-methylamino-cyclohexyl)-amide hydrochloride] | > 7.30 |  | > 7.30 | 
CN[C@H]1CC[C@@H](N(Cc2cc(-c3ccc(C#N)cc3)ccc2OC)C(=O)c2sc3cccc(F)c3c2Cl)CC1 [Compound 366, 3-Chloro-4-fluoro-benzo[b]thiophene-2-carboxylic acid (4′-cyano-4-methoxy-biphenyl-3-ylmethyl)-(4-methylamino-cyclohexyl)-amide hydrochloride] | > 7.30 |  | > 7.30 | 
CN[C@H]1CC[C@H](N(Cc2cc(-c3ccc(N)nc3C)ccc2OC)C(=O)c2sc3ccccc3c2Cl)CC1 [Compound 398, 3-Chloro-benzo[b]thiophene-2-carboxylic acid [5-(6-amino-2-methyl-pyridin-3-yl)-2-methoxy-benzyl]-(4-methylamino-cyclohexyl)-amide dihydrochloride] |  |  |  | pEC50 ([2]; Table 3): 5.60 to 6.00; pEC50 ([3]; HepM human cells, Table 3): 5.60 to 6.00; pEC50 ([4]; Daoy human cells, Table 3): 6.00 to 6.60
CN[C@H]1CC[C@H](N(Cc2cc(-c3ccc(C(O)C(F)(F)F)cc3)ccc2F)C(=O)c2sc3ccccc3c2Cl)CC1 (stereo partly shown) [Compound 433, 3-Chloro-benzo[b]thiophene-2-carboxylic acid [4-fluoro-4′-(2,2,2-trifluoro-1-hydroxy-ethyl)-biphenyl-3-ylmethyl]-(4-methylamino-cyclohexyl)-amide hydrochloride] |  |  |  | pEC50 ([2]; Table 3): > 7.30; pEC50 ([4]; Daoy human cells, Table 3): > 7.30
CN[C@H]1CC[C@@H](N(Cc2cc(-c3ccnc(C(=O)O)c3)ccc2OC)C(=O)c2sc3c(F)ccc(F)c3c2Cl)CC1 [Compound R6, 4-(3-{[(3-Chloro-4,7-difluoro-benzo[b]thiophene-2-carbonyl)-(4-methylamino-cyclohexyl)-amino]-methyl}-4-methoxy-phenyl)-pyridine-2-carboxylic acid bis(trifluoroacetate)] | 6.60 to 7.30 | 6.60 to 7.30 |  | 
CN[C@H]1CC[C@@H](N(Cc2cc(-c3ccc(S(C)(=O)=O)cc3)ccc2OC)C(=O)c2sc3ccccc3c2Cl)CC1 [Compound R7, 3-Chloro-benzo[b]thiophene-2-carboxylic acid (4′-methanesulfonyl-4-methoxy-biphenyl-3-ylmethyl)-(4-methylamino-cyclohexyl)-amide hydrochloride] | > 7.30 | > 7.30 |  | 
